Data from PMC6753678, “Fueling Open Innovation for Malaria Transmission-Blocking Drugs: Hundreds of Molecules Targeting Early Parasite Mosquito Stages” (Frontiers in Microbiology, 2019).
Where two headings read alike, the source gives them in different places.

Key:
[1] = test system: P. berghei ookinete development; details: for % inhibition, Replicate A / % inhibition, Replicate B: primary screen at 1 μM
[2] = test system: HepG2 cells; test: HepG2 cytotoxicity assay; details: for Pb ODA (this manuscript) HepG2 cytoxicity: HepG2 cytotoxicity listed with the Pb ODA data set (this manuscript); for IC50: read-out: HepG2 cytotoxicity assay IC50, dose response confirmation
How it was run: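 Cells are plated at 2,500 per well on compound-treated plates in MEM containing 10% fetal bovine serum and 1% NEAA, then incubated 48 h at 37°C.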

[3] = test system: 3D7-strain P. falciparum asexual parasites; test: P. falciparum asexual growth inhibition assay (Pf GIA); assay type: cell-based, Plasmodium falciparum; details: dose response confirmation; read-out: Pf asexual growth inhibition assays IC50
How it was run: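 LDH readout: absorbance at 650 nm after 10 min at room temperature with lactate/APAD/NBT/diaphorase mix on thawed plates. Cultures (0.25% parasitemia, 2% hematocrit) were treated 72 h at 37°C in low-oxygen gas. Inhibition was normalised to 50 μM chloroquine and DMSO; n=3 biological replicates.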

[4] = read-out: Pb ODA (this manuscript) IC50, P. berghei ookinete development assay, this manuscript
[5] = read-out: Pb Ookinete development assay IC50, dose response confirmation
[6] = read-out: Pb ODA IC50, this manuscript
[7] = unified HepG2 value across the three screens
[8] = HepG2 values of the three screens unified

| SMILES | Is compound selective in assay? Pb ODA active? [1] | % inhibition, Replicate A [1] | % inhibition, Replicate B [1] | IC50 [1, 4] | IC50 [1, 5] | Pb ODA (this manuscript) HepG2 cytoxicity [2] | IC50 [2] | IC50 [3] | Is compound selective in assay? Pb ODA active? ([1]; 1: YES, 0: NO) | IC50 [1, 6] | Unified cytotox [2, 7] | HepG2 cytoxicity (Pb ODA, this manuscript) [2] | Unified cytotox [2, 8] |
| --- | --- | --- | --- | --- | --- | --- | --- | --- | --- | --- | --- | --- | --- |
| CC1(C)NC(N)=NC(=N)N1OCOc1ccc(Cl)cc1.Cl [TCMDC-131734] | 0 (key: 1: YES; 0: NO) | 89.86% | 40.05% | 2620 nM | 2620 nM | 0.0759 µM | 75.9 nM | < 0.2 nM |  |  |  |  |  |
| COc1ccc(C=C2SC(=N)N(c3ccccc3OC)C2=O)cc1 [TCMDC-124486] |  | 113.35% | 91.87% |  | 682 nM |  | 24600 nM | 343 nM | 1 (1: YES) | 680 nM | 24.55 µM |  |  |
| COc1ccc2ncc(F)c(CCN3CCC(NCc4cc(Br)c5c(c4)OCCO5)CC3)c2n1.Cl [TCMDC-136211] | 0 (key: 1: YES; 0: NO) | 36.10% | 50.60% | 3390 nM | 3400 nM | 14.45 µM | 14400 nM | 239 nM |  |  |  |  |  |
| CCCC(CCC)n1ccc2c3c(N)nc(N)nc3ccc21.Cl [TCMDC-137949] |  | 42.83% | 73.31% |  | 2780 nM |  | 1.7 nM | < 0.2 nM | 0 (0: NO) | 2780 nM |  | 0.0017 µM | 0.0017 µM |
| CC1=CC(=O)[C@@H](O)[C@]2(C)[C@H]3[C@@]4(O)OC[C@@]35[C@@H](C[C@@H]12)OC(=O)C[C@H]5[C@@H](C)[C@H]4O [TCMDC-142261] |  | 102.04% | 101.98% |  | 55 nM |  | 26300 nM | 109 nM | 1 (1: YES) | 54.9 nM | 26.30 µM |  |  |
| CCOC(=O)c1c(-c2ccccc2)nc2c(sc3ccccc32)c1O [TCMDC-131540] |  | 101.19% | 85.53% |  | 1310 nM |  | 100000 nM | 3870 nM | 1 (1: YES) | 1310 nM | 100.00 µM |  |  |
| Cc1[nH]c(C)c(-c2ccc(Nc3ccc(C(F)(F)F)cn3)cc2)c(=O)c1Br [TCMDC-135546] | 1 (key: 1: YES; 0: NO) | 85.12% | 90.38% |  | 5.45 nM | 0.98 µM | 980 nM | 14 nM |  |  |  |  |  |
| CCCCCCCCc1c(C)[nH]c(C)c(Cl)c1=O [TCMDC-137538] |  | 94.00% | 90.22% |  | 131 nM |  | 4790 nM | 102 nM | 1 (1: YES) | 130 nM | 4.79 µM |  |  |
| Cc1nc(C)c(-c2ccc(Oc3ccc(Cl)c(Cl)c3)cc2)c(O)c1Br [TCMDC-137397] |  | 88.28% | 102.35% |  | 90 nM |  | 19500 nM | 88 nM | 1 (1: YES) |  |  | 19.50 µM | 19.50 µM |
| CCN(CC)CCCNc1c2ccccc2nc2ccccc12.Cl [TCMDC-125517] |  | 20.29% | 90.60% |  | 1610 nM |  | 18200 nM | 50 nM | 1 (1: YES) | 1610 nM |  | 18.20 µM | 18.20 µM |
| CCc1c(C)nc(-n2nc(C)cc2NC(=O)c2ccc(OC)cc2OC)[nH]c1=O [TCMDC-124937] | 0 (key: 1: YES; 0: NO) | 65.69% | 36.83% | 1510 nM | 1510 nM | 10.00 µM | 10000 nM | 10 nM |  |  |  |  |  |
| Br.CC(CCON1C(N)=NC(N)=NC1(C)C)c1ccc(Cl)c(Cl)c1 (stereo not shown) [TCMDC-123922] |  | 47.79% | 55.73% |  | 5760 nM |  | 1 nM | < 0.2 nM | 0 (0: NO) | 5760 nM |  | 0.001 µM | 0.001 µM |
| COc1ccc2nccc([C@@H](O)CN3CCC(NCc4cc5c(F)ccc(F)c5[nH]4)CC3)c2n1.CS(=O)(=O)O [TCMDC-140749] | 0 (key: 1: YES; 0: NO) | 52.78% | 27.90% | 3270 nM | 3270 nM | 14.13 µM | 14100 nM | 130 nM |  |  |  |  |  |
| CNCCN(C)C(=O)Oc1c(Br)c(C)nc(C)c1-c1ccc(Oc2ccc(OC(F)(F)F)cc2)cc1.Cl [TCMDC-137377] | 0 (key: 1: YES; 0: NO) | 132.58% | 124.21% | 1480 nM | 1480 nM | 8.32 µM | 8320 nM | 71 nM |  |  |  |  |  |
| CCCOc1cc(OCCC)cc(-c2cc(=O)c3ccccc3[nH]2)c1 [TCMDC-138943] |  | 86.05% | 83.39% |  | 547 nM |  | 100000 nM | 76 nM | 1 (1: YES) | 550 nM | 100.00 µM |  |  |
| CC(C#N)Cc1ccc(-c2cnc(N)c3cc(-c4ccnc(N)n4)ccc23)cc1 (stereo not shown) [TCMDC-134547] |  | 69.67% | 52.16% |  | 849 nM |  | 5750 nM | 1370 nM | 0 (0: NO) | 850 nM | 5.75 µM |  |  |
| CCC(C(C)C)n1ccc2c3c(N)nc(N)nc3ccc21 (stereo not shown) [TCMDC-137872] |  | 63.79% | 69.72% |  | 474 nM |  | 1.7 nM | < 0.2 nM | 0 (0: NO) | 470 nM |  | 0.0017 µM | 0.0017 µM |
| COc1ccc(Cn2ncc3c4c(N)nc(N)nc4ccc32)cc1OC [TCMDC-131934] | 0 (key: 1: YES; 0: NO) | 44.86% | 51.03% | 1530 nM | 1530 nM | 0.00214 µM | 2.14 nM | 58 nM |  |  |  |  |  |
| CC(C)Nc1nc(NC2CCCCC2)nc(N2CCCCCCC2)n1 [TCMDC-139688] |  | 67.11% | 52.41% |  | 3260 nM |  | 33100 nM | 2240 nM | 1 (1: YES) |  | 33.11 µM |  |  |
